pKi: −log10 of the molar value.
How the values were obtained:
[1] = tested on: nicotine-evoked [3H]DA release, rat striatal slices; experiment: Inhibition of nicotine-evoked [3H]dopamine release from superfused rat striatal slices; format: cell-based; settings: 100 nM analog superfused 60 min before nicotine (10 μM)
Procedure: Rat striatal slices (500 μm thickness, 6-8 mg wet weight) were incubated for 30 minutes in Krebs buffer (118 mM NaCl, 4.7 mM KCl, 1.2 mM MgCl2, 1.0 mM NaH2PO4, 1.3 mM CaCl2, 11.1 mM glucose, 25 mM NaHCO3, 0.11 mM L-ascorbic acid, and 0.004 mM disodium EDTA; pH 7.4, and saturated with 95% O2/5% CO2) in a metabolic shaker at 34° C. Slices were rinsed with 15 mL of fresh buffer and incubated for an additional 30 minutes in fresh buffer containing 0.1 μM [^3H]dopamine (DA; 6 slices/3 mL). Subsequently, slices were rinsed with 15 mL of fresh buffer and transferred to a glass superfusion chamber. Slices were superfused (1.0 mL/min) for 60 minutes with Krebs buffer containing nomifensine (10 μM) and pargyline (10 μM) and maintained at 34° C., pH 7.4, with continual aeration (95% O2/5% CO2). Two five minute samples (5 mL each) were collected to determine basal outflow of [^3H]DA. The bis-quaternary ammonium cyclophane analogs were added to the superfusion buffer after the collection of the second sample and remained in the buffer until 12 consecutive five minute samples were collected. […] At the end of the experiment, each slice was solubilized and the [^3H] content of the tissue determined.
Radioactivity in the superfusate and tissue samples was determined by liquid scintillation spectroscopy. Fractional release for tritium collected in each sample was divided by the total tritium present in the tissue at the time of sample collection and was expressed as a percentage of total tritium. Basal [^3H]outflow was calculated from the average of the tritium collected in the two five minute samples just before addition of the quaternary ammonium analog. […] [^3H]Overflow was calculated by subtracting the [^3H]outflow during an equivalent period of prestimulation from the values in samples collected during and after drug exposure. […]
The bis-quaternary ammonium cyclophane analogs were also evaluated for their ability to inhibit nicotine evoked [^3H]DA release. […] Antagonist activity was evaluated by comparing the nicotine evoked [^3H]overflow in the absence and presence of the analogs. […]

[2] = biological target: T1, Rat striatal nicotinic receptors ([3H]MLA binding) (Rattus norvegicus, UniProt Q05941); experiment: Inhibition of [3H]methyllycaconitine (MLA) binding; settings: for Inhibition of [3H]MLA Binding: % inhibition at 100 nM analog, 2.5 nM [3H]MLA, nonspecific binding with 1 μM nicotine (footnote b)
T1 construct: Whole brain, excluding cortex and cerebellum, was homogenized; from tissue; host or cells: rat brain membranes (whole brain excluding cortex and cerebellum)
T1 sequence (Q05941 23-502): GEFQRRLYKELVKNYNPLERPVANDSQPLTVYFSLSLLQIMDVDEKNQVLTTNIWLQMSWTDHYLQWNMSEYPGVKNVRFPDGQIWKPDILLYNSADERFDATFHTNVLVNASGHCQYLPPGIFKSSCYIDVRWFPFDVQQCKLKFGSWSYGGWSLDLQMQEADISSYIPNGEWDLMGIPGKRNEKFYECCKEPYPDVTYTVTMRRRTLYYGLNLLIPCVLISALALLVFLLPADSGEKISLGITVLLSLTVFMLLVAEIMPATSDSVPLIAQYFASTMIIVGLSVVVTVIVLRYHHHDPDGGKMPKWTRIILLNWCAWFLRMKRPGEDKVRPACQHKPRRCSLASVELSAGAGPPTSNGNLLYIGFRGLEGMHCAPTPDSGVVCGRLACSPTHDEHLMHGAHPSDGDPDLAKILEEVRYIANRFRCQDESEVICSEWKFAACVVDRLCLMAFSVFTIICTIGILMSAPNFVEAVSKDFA
Procedure: Whole brain, excluding cortex and cerebellum, was homogenized in 20 vol of ice-cold buffer, containing (in mM): 2 HEPES, 11.8 NaCl, 0.48 KCl, 0.25 CaCl2 and 0.12 MgSO4, pH 7.5. Homogenate was centrifuged (25,000 g, 15 min, 4° C.). Pellets were resuspended in 20 vol buffer and incubated at 37° C., for 10 min, cooled to 4° C. and centrifuged (25,000 g, 15 min, 4° C.). Pellets were resuspended and centrifuged using the same conditions. Final pellets were stored in assay buffer, containing (in mM): 20 HEPES, 118 NaCl, 4.8 KCl, 2.5 CaCl2, and 1.2 MgSO4, pH 7.5 at −70° C. Upon use, final pellets were resuspended in ˜20 vol assay buffer. […] Control was in the absence of analog. […] Incubations proceeded for 60 min at room temperature using 96-well plates and were terminated by harvesting on Unifilter-96 GF/B filter plates presoaked in 0.5% polyethylenimine, using a Packard FilterMate harvester. After washing 5 times with 350 μl ice-cold assay buffer, filter plates were dried (60 min, 4° C.), bottom-sealed, and filled with Packard's MicroScint 20 cocktail (40 μl/well). After 60 min, filter plates were top-sealed, and radioactivity determined using a Packard TopCount. Protein concentrations were determined using the Bradford dye-binding procedure bovine serum albumin as the standard.

[3] = biological target: T2, Rat striatal nicotinic receptors ([3H]nicotine binding) (Rattus norvegicus, UniProt P09483+P12390); experiment: Inhibition of [3H]nicotine binding; settings: 3 nM [3H]nicotine; for Inhibition of [3H]Nicotine binding: % inhibition at 100 nM analog, nonspecific binding with 10 μM cytisine
T2 construct: Whole brain, excluding cortex and cerebellum, was homogenized; from tissue; host or cells: rat brain membranes (whole brain excluding cortex and cerebellum)
T2 sequence (P09483 31-630): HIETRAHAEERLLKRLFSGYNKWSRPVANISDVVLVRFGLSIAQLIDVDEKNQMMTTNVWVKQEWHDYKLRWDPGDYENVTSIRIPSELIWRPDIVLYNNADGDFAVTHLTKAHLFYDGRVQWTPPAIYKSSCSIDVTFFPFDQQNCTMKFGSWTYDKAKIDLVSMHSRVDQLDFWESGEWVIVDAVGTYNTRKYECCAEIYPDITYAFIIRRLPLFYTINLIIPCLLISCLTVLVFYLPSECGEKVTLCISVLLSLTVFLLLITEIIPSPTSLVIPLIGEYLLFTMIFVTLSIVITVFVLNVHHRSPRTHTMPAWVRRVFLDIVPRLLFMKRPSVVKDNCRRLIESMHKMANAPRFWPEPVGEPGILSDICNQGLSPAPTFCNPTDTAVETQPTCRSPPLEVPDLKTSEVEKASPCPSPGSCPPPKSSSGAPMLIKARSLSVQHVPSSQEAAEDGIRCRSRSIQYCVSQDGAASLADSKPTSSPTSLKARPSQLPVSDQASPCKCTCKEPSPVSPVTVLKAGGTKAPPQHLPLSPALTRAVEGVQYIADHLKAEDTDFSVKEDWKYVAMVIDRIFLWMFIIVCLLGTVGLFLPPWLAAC
T2 sequence (P12390 25-500): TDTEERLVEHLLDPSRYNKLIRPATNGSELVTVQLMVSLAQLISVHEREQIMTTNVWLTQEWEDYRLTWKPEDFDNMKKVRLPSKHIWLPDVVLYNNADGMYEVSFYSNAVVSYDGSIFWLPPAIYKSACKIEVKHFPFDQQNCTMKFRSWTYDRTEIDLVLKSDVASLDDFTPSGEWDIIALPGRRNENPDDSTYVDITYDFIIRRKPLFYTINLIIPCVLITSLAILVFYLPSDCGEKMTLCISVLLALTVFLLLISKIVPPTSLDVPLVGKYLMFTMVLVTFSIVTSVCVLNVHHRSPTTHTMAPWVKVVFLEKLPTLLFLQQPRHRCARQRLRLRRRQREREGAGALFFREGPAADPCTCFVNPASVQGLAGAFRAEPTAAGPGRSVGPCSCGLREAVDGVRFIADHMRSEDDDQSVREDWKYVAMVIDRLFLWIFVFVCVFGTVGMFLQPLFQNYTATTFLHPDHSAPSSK
Procedure: Whole brain, excluding cortex and cerebellum, was homogenized in 20 vol of ice-cold buffer, containing (in mM): 2 HEPES, 11.8 NaCl, 0.48 KCl, 0.25 CaCl2 and 0.12 MgSO4, pH 7.5. Homogenate was centrifuged (25,000 g, 15 min, 4° C.). Pellets were resuspended in 20 vol buffer and incubated at 37° C., for 10 min, cooled to 4° C. and centrifuged (25,000 g, 15 min, 4° C.). Pellets were resuspended and centrifuged using the same conditions. Final pellets were stored in assay buffer, containing (in mM): 20 HEPES, 118 NaCl, 4.8 KCl, 2.5 CaCl2, and 1.2 MgSO4, pH 7.5 at −70° C. Upon use, final pellets were resuspended in ˜20 vol assay buffer. Samples (250 μl) contained 100-140 μg of membrane protein, 3 nM [^3H]nicotine or 3 nM [^3H]methyllycaconitine (MLA), and bis-quaternary ammonium cyclophane analog (100 nM) in assay buffer containing 50 mM Tris. Control was in the absence of analog. In [^3H]nicotine and [^3H]methyllycaconitine binding assays, nonspecific binding was determined in the presence of 10 μM cytisine and 10 μM nicotine, respectively. Incubations proceeded for 60 min at room temperature using 96-well plates and were terminated by harvesting on Unifilter-96 GF/B filter plates presoaked in 0.5% polyethylenimine, using a Packard FilterMate harvester. After washing 5 times with 350 μl ice-cold assay buffer, filter plates were dried (60 min, 4° C.), bottom-sealed, and filled with Packard's MicroScint 20 cocktail (40 μl/well). After 60 min, filter plates were top-sealed, and radioactivity determined using a Packard TopCount. Protein concentrations were determined using the Bradford dye-binding procedure bovine serum albumin as the standard.

[4] = biological target: BBB choline transporter; experiment: Affinity for the BBB choline transporter; format: binding
[5] = full concentration effect evaluated

Row | SMILES | Inhibition of Nicotine-evoked [3H]DA release [1] [%] | Inhibition of [3H]MLA Binding [2] [%] | Inhibition of [3H]Nicotine binding [3] [%] | pKi [4] | pKi [2, 5] | pKi [3, 5]
1 | c1cc2c[n+](c1)CCCCCCCCCCCCc1ccc[n+](c1)CCCCCCCCCCCC2 [N,3′-(1,12-dodecanediyl)-3,N′-(1,12-dodecanediyl)-bis-pyridinium dibromide] | 20 | 0 | 2 | – | – | –
2 | c1cc2c[n+](c1)CCCC[n+]1cccc(c1)CCCCCCCCCCCC2 [N,N′-(1,4-butanediyl)-3,3′-(1,12-dodecanediyl)-bis-pyridinium diiodide] | 23 | 3.0 ± 3.0 | 14 ± 2.6 | – | – | –
3 | C1#Cc2ccc[n+](c2)CCCCCC[n+]2cccc(c2)C#CCCCCCC1.[I-].[I-] [N,N′-(1,6-hexanediyl)-3,3′-(1,9-decanediyn-1,10-diyl)-bis-pyridinium diiodide] | – | 2 | 7 | 4.47 | – | –
4 | C1#Cc2ccc[n+](c2)CCCCCCCC[n+]2cccc(c2)C#CCCCCCC1.[I-].[I-] [N,N′-(1,8-octanediyl)-3,3′-(1,9-decanediyn-1,10-diyl)-bis-pyridinium diiodide] | – | 0 | 9 | – | – | –
5 | C1#Cc2ccc[n+](c2)CCCCCCCCC[n+]2cccc(c2)C#CCCCCCC1.[Br-].[Br-] [N,N′-(1,9-nonanediyl)-3,3′-(1,9-decanediyn-1,10-diyl)-bis-pyridinium dibromide] | – | 3 | 0 | 5.85 | – | –
6 | C1#Cc2ccc[n+](c2)CCCCCCCCCC[n+]2cccc(c2)C#CCCCCCC1 [N,N′-(1,10-decanediyl)-3,3′-(1,9-decanediyn-1,10-diyl)-bis-pyridinium diiodide] | 19 | – | – | 6.10 | 5.33 | 6.26
7 | C1#Cc2ccc[n+](c2)CCCCCCCCCCC[n+]2cccc(c2)C#CCCCCCC1.[Br-].[Br-] [N,N′-(1,11-undecanediyl)-3,3′-(1,9-decanediyn-1,10-diyl)-bis-pyridinium dibromide] | – | 3 | 11 | 4.82 | – | –
